In US11634447B2 (priority 2012, dated 2023):
pKd: −log10 of the molar value. Several values for one entry are separate records, joined by “and”; a condition that tells them apart may be missing. Equal values may be shown once.

biological target: T1, FimH-CRD (Escherichia coli, UniProt P08191); assay: Competitive binding assay by fluorescence polarization, assay 1 (compounds prepared by manual dilution); design: species or system E. coli; conditions: Assay 1 Kd, 5 nM Alexa 647 mannoside probe, 60 nM FimH-CRD, replicate values in one cell
T1 construct: The first 177 amino acids of the FimH protein are expressed as a fusion protein; thrombin tag (printed as 'fusion protein with thrombin') (cleaved yes); made in house; host or cells: bacteria (pET21b plasmid)
T1 sequence (P08191 22-177): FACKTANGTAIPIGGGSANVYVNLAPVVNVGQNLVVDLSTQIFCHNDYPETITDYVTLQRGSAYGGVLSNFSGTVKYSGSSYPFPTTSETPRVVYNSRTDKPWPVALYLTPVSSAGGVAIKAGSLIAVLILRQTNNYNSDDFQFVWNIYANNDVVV
Description: The first 177 amino acids of the FimH protein are expressed as a fusion protein with thrombin in a pET21b plasmid in bacteria. This FimH protein sequence contains the carbohydrate recognition domain (CRD) and shall be termed FimH-CRD. Following bacterial expression of the protein, the FimH-CRD protein is purified to homogeneity and the thrombin tag removed by protease cleavage. A competitive binding assay by fluorescence polarization is performed using 5 nM of the Alexa 647 mannoside probe and 60 nM of the FimH-CRD. The samples are assayed in a low volume 384 well microtiter plate in a final volume of 20 μl. The final assay buffer conditions are the following, 50 mM Tris-Cl, ph 7.0, 100 mM NaCl, 1 mM EDTA, 5 mM β-mercaptoethanol, 0.05% BSA and 2.5% DMSO. Two assays are performed for FimH, termed assay 1 or assay 2. The assay conditions are the same for both assays except the following: assay 1 has compounds prepared by manual dilution in a serial dilution factor with 12-point dose response while assay 2 has compounds prepared by a robotics system also through a serial dilution factor (12 point dose response) and initially prepared in duplicate in 384 well-Corning polypropylene round bottom plates. The assay 2 plates have compound which is then frozen and must be thawed prior to use. Initially the Alexa 647 probe and the FimH-CRD are added to the assay buffer and then 0.5 μl of test compound (assay 1 or 2) between 0.4 nM to 75 μM final concentration are added (12 point titration with 3-fold serial dilution). Control wells for the Alexa 647 probe are prepared with the same conditions except for the addition of the FimH-CRD protein. Plates are then incubated for 5 hrs at room temperature in the dark and under humid conditions to prevent drying. Plates are read using the SpectraMax Paradigm multi-mode plate reader and the appropriate fluorescent polarization detection cartridge (Alexa-647).
Alexa 647 mannoside probe is prepared using the similar procedure reported for FAM mannoside (Han, Z. et. al., 2010, J. Med. Chem., 53, 4779) and is described in the scheme below.
To a blue colored stirred solution of (2S,3S,4S,5S,6R)-2-(4-aminobutoxy)-6-(hydroxymethyl)tetrahydropyran-3,4,5-triol (2.21 mg, 0.009 mmol) and the (2E)-2-[(2E,4E)-5-[3,3-dimethyl-5-sulfonato-1-(3-sulfonatopropyl)indol-1-ium-2-yl]penta-2,4-dienylidene]-3-[6-(2,5-dioxopyrrolidin-1-yl)oxy-6-oxo-hexyl]-3-methyl-1-(3-sulfonatopropyl)indoline-5-sulfonate (Potassium Ion (3)) (4.9 mg, 0.0044 mmol) in DMF (44 μL) is added Et3N (5.4 mg, 7.0 μL, 0.053 mmol) at RT. The solution is stirred at room temperature over night, concentrated, dissolved in water and purified on 12 g C-18 silica gel cartridge on Isolera system using acetonitrile in water (0 to 40%, 10 CV) and followed by lyophilization to afford Alexa 647 mannoside probe (3.3 mg, 34%) as deep blue solid.
The Kd values of the compounds are determined from dose response curves using twelve concentrations per compound in duplicate. Curves are fitted to data points using Fluorescence Polarization competitive displacement analysis, and Kds are interpolated from the resulting curves using GraphPad Prism software, version […] (GraphPad software Inc., San Diego, Calif., USA).

| Compound | pKd | Kd |
| --- | --- | --- |
| OC[C@H]1O[C@H](c2cc([C@H]3O[C@H](CO)[C@@H](O)[C@H](O)[C@@H]3O)cc(C(F)(F)F)c2)[C@@H](O)[C@@H](O)[C@@H]1O [Compound 3] | 7.29 and 7.40 | – |
| CC(C)Oc1ccc([C@H]2O[C@H](CO)[C@@H](O)[C@H](O)[C@@H]2O)cc1[C@H]1O[C@H](CO)[C@@H](O)[C@H](O)[C@@H]1O [Compound 4] | 7.17 and 7.02 | – |
| O=C(Nc1ccc(NC(=O)c2cccc([C@H]3O[C@H](CO)[C@@H](O)[C@H](O)[C@@H]3O)c2)cc1)c1cccc([C@H]2O[C@H](CO)[C@@H](O)[C@H](O)[C@@H]2O)c1 [Compound 7, (3-[(2R,3S,4R,5S,6R)-3,4,5-Trihydroxy-6-(hydroxymethyl)tetrahydropyran-2-yl]-N-[4-[[3-[(2R,3S,4R,5S,6R)-3,4,5-trihydroxy-6-(hydroxymethyl)tetrahydropyran-2-yl]benzoyl]amino]phenyl]benzamide)] | 7.77 and 7.96 | – |
| O=C(NCCNC(=O)c1cccc([C@H]2O[C@H](CO)[C@@H](O)[C@H](O)[C@@H]2O)c1)c1cccc([C@H]2O[C@H](CO)[C@@H](O)[C@H](O)[C@@H]2O)c1 [Compound 8, (R,R,S,R,S)-N,N′-(Ethane-1,2-diyl)bis(3-((2R,3S,4R,5S,6R)-3,4,5-trihydroxy-6-(hydroxymethyl)tetrahydro-2H-pyran-2-yl)benzamide)] | 7.80 and 7.72 | – |
| O=C(NCCCCNC(=O)c1cccc([C@H]2O[C@H](CO)[C@@H](O)[C@H](O)[C@@H]2O)c1)c1cccc([C@H]2O[C@H](CO)[C@@H](O)[C@H](O)[C@@H]2O)c1 [Compound 10, (R,R,S,R,S)-N,N′-(Butane-1,4-diyl)bis(3-((2R,3S,4R,5S,6R)-3,4,5-trihydroxy-6-(hydroxymethyl)tetrahydro-2H-pyran-2-yl)benzamide)] | 8.05 and 7.82 | – |
| O=C(NCCCCCCNC(=O)c1cccc([C@H]2O[C@H](CO)[C@@H](O)[C@H](O)[C@@H]2O)c1)c1cccc([C@H]2O[C@H](CO)[C@@H](O)[C@H](O)[C@@H]2O)c1 [Compound 12, (R,R,S,R,S)-N,N′-(Hexane-1,6-diyl)bis(3-((2R,3S,4R,5S,6R)-3,4,5-trihydroxy-6-(hydroxymethyl)tetrahydro-2H-pyran-2-yl)benzamide)] | 7.85 and 7.74 | – |
| O=C(NCCCCCCCNC(=O)c1cccc([C@H]2O[C@H](CO)[C@@H](O)[C@H](O)[C@@H]2O)c1)c1cccc([C@H]2O[C@H](CO)[C@@H](O)[C@H](O)[C@@H]2O)c1 [Compound 13, (R,R,S,R,S)-N,N′-(Heptane-1,7-diyl)bis(3-((2R,3S,4R,5S,6R)-3,4,5-trihydroxy-6-(hydroxymethyl)tetrahydro-2H-pyran-2-yl)benzamide)] | 7.77 and 7.92 | – |
| O=C(NCCOCCOCCNC(=O)c1cccc([C@H]2O[C@H](CO)[C@@H](O)[C@H](O)[C@@H]2O)c1)c1cccc([C@H]2O[C@H](CO)[C@@H](O)[C@H](O)[C@@H]2O)c1 [Compound 15, (R,R,S,R,S)-N,N′-((Ethane-1,2-diylbis(oxy))bis(ethane-2,1-diyl))bis(3-((2R,3S,4R,5S,6R)-3,4,5-trihydroxy-6-(hydroxymethyl)tetrahydro-2H-pyran-2-yl)benzamide)] | 7.96 and 7.82 | – |
| OC[C@H]1O[C@H](Oc2cccc([C@H]3O[C@H](CO)[C@@H](O)[C@H](O)[C@@H]3O)c2)[C@@H](O)[C@@H](O)[C@@H]1O [Compound 17, ((2R,3S,4R,5S,6R)-2-(Hydroxymethyl)-6-[3-[(2R,3S,4S,5S,6R)-3,4,5-trihydroxy-6-(hydroxymethyl)tetrahydropyran-2-yl]oxyphenyl]tetrahydropyran-3,4,5-triol)] | > 8.30 and 8.22 | – |
| OC[C@H]1O[C@H](n2cc(-c3ccc(-c4cn([C@H]5O[C@H](CO)[C@@H](O)[C@H](O)[C@@H]5O)nn4)cc3)nn2)[C@@H](O)[C@@H](O)[C@@H]1O [Compound 18, ((2R,3S,4S,5S,6S)-2-(Hydroxymethyl)-6-[4-[4-[1-[(2S,3S,4S,5S,6R)-3,4,5-trihydroxy-6-(hydroxymethyl)tetrahydropyran-2-yl]triazol-4-yl]phenyl]triazol-1-yl]tetrahydropyran-3,4,5-triol)] | 5.97 and 5.99 | – |
| C#CCN(Cc1cn([C@H]2O[C@H](CO)[C@@H](O)[C@H](O)[C@@H]2O)nn1)Cc1cn([C@H]2O[C@H](CO)[C@@H](O)[C@H](O)[C@@H]2O)nn1 [Compound 20] | 7.24 and 7.02 | – |
| OC[C@H]1O[C@H](c2ccc(-c3cn([C@H]4O[C@H](CO)[C@@H](O)[C@H](O)[C@@H]4O)nn3)cc2)[C@@H](O)[C@@H](O)[C@@H]1O [Compound 21, ((2R,3S,4R,5S,6R)-2-(Hydroxymethyl)-6-(4-(1-((2S,3S,4S,5S,6R)-3,4,5-trihydroxy-6-(hydroxymethyl)tetrahydro-2H-pyran-2-yl)-1H-1,2,3-triazol-4-yl)phenyl)tetrahydro-2H-pyran-3,4,5-triol)] | – | < 5 nM (2×) and 9 nM |
| Cc1cc(/C=C/C[C@H]2O[C@H](CO)[C@@H](O)[C@H](O)[C@@H]2O)cc(C)c1/C=C/C[C@H]1O[C@H](CO)[C@@H](O)[C@H](O)[C@@H]1O [Compound 31, ((2R,3S,4R,5S,6R)-2-[(E)-3-[3,5-Dimethyl-4-[(E)-3-((2R,3S,4R,5S,6R)-3,4,5-trihydroxy-6-(hydroxymethyl)tetrahydropyran-2-yl]prop-1-enyl]phenyl]allyl]-6-(hydroxymethyl)tetrahydropyran-3,4,5-triol)] | > 8.30 | – |
| OC[C@H]1O[C@H](C/C=C/c2ccc(C#Cc3ccc([C@H]4O[C@H](CO)[C@@H](O)[C@H](O)[C@@H]4O)cc3)cc2)[C@@H](O)[C@@H](O)[C@@H]1O [Compound 34, ((2R,3 S,4R,5S,6R)-2-(Hydroxymethyl)-6-[(E)-3-[4-[2-[4-[(2R,3S,4R,5S,6R)-3,4,5-trihydroxy-6-(hydroxymethyl)tetrahydropyran-2-yl]phenyl]ethynyl]phenyl]allyl]tetrahydropyran-3,4,5-triol)] | > 8.30 and 8.22 | – |
| OC[C@H]1O[C@H](c2ccc(-n3cc([C@H]4O[C@H](CO)[C@@H](O)[C@H](O)[C@@H]4O)nn3)cc2)[C@@H](O)[C@@H](O)[C@@H]1O [Compound 36, ((2R,3S,4R,5S,6R)-2-(Hydroxymethyl)-6-[4-[4-[(2R,3S,4R,5S,6R)-3,4,5-trihydroxy-6-(hydroxymethyl)tetrahydropyran-2-yl]triazol-1-yl]phenyl]tetrahydropyran-3,4,5-triol)] | 8.22 and 7.85 and > 8.30 | – |
| O=C(Nc1ccc([C@H]2O[C@H](CO)[C@@H](O)[C@H](O)[C@@H]2O)cc1)c1cccc([C@H]2O[C@H](CO)[C@@H](O)[C@H](O)[C@@H]2O)c1 [Compound 39, (3-[(2R,3S,4R,5S,6R)-3,4,5-Trihydroxy-6-(hydroxymethyl)tetrahydropyran-2-yl]-N-[4-[(2R,3S,4R,5S,6R)-3,4,5-trihydroxy-6-(hydroxymethyl)tetrahydropyran-2-yl]phenyl]benzamide)] | 7.54 and 7.34 | – |
| O=C(C[C@H]1O[C@H](CO)[C@@H](O)[C@H](O)[C@@H]1O)Nc1ccc(NC(=O)C[C@H]2O[C@H](CO)[C@@H](O)[C@H](O)[C@@H]2O)cc1 [Compound 43, (2-[(2R,3S,4R,5S,6R)-3,4,5-Trihydroxy-6-(hydroxymethyl)tetrahydropyran-2-yl]-N-[4-[[2-[(2R,3S,4R,5,6R)-3,4,5-trihydroxy-6-(hydroxymethyl)tetrahydropyran-2-yl]acetyl]amino]phenyl]acetamide)] | 7.70 and 7.57 | – |

same assay, conditions: read-out: Assay 1 Kd, 5 nM Alexa 647 mannoside probe, 60 nM FimH-CRD, replicate values in one cell

| Compound | pKd |
| --- | --- |
| Cc1cc(/C=C/C[C@H]2O[C@H](CO)[C@@H](O)[C@H](O)[C@@H]2O)cc(C)c1/C=C/C[C@H]1O[C@H](CO)[C@@H](O)[C@H](O)[C@@H]1O [Compound 31, ((2R,3S,4R,5S,6R)-2-[(E)-3-[3,5-Dimethyl-4-[(E)-3-((2R,3S,4R,5S,6R)-3,4,5-trihydroxy-6-(hydroxymethyl)tetrahydropyran-2-yl]prop-1-enyl]phenyl]allyl]-6-(hydroxymethyl)tetrahydropyran-3,4,5-triol)] | > 8.30 |
